# Data published in article PMC5067704 (ACS Infectious Diseases, 2016).
# System: E. coli tolC mutant
# Test: microbe, parasite or virus in culture
# Format: cell-based, Escherichia coli
# Details: Escherichia coli, read-out: MIC E. coli tolC mutant
row,Structure (SMILES),MIC [µg/mL]
1,COc1cc(Cc2cnc(N)nc2N)cc(OC)c1OCCCCCn1cc(CNC(=O)Cc2cc(=O)oc3cc(N(C)C)ccc23)nn1 [compound 13c],1
2,COc1cc(Cc2cnc(N)nc2N)cc(OC)c1OCCCCN=[N+]=[N-] [8b],0.125
3,COc1cc(Cc2cnc(N)nc2N)cc(OC)c1OCCCn1cc(CNc2ccc([N+](=O)[O-])c3nonc23)nn1 [12a],2
4,"COc1cc(Cc2cnc(N)nc2N)cc(OC)c1OC [TMP, trimethoprim, reference compound]",0.125

# Molecular target: T1, E. coli dihydrofolate reductase (eDHFR) (Escherichia coli, UniProt P0ABQ4)
# T1 construct: host or cells: cell-free (PURExpress in vitro protein synthesis)
# Test: DHFR enzyme inhibition assay
# Format: biochemical
# Details: not given
# T1 sequence (P0ABQ4 whole entry): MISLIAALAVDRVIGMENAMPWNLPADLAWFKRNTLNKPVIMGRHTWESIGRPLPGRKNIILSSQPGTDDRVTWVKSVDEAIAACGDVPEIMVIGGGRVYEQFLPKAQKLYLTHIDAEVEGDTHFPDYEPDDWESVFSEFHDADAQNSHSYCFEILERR
row,Structure (SMILES),IC50 [µM]
1,COc1cc(Cc2cnc(N)nc2N)cc(OC)c1OCCCCCn1cc(CNC(=O)Cc2cc(=O)oc3cc(N(C)C)ccc23)nn1 [compound 13c],0.668
2,COc1cc(Cc2cnc(N)nc2N)cc(OC)c1OCCCCN=[N+]=[N-] [8b],0.097
3,COc1cc(Cc2cnc(N)nc2N)cc(OC)c1OCCCn1cc(CNc2ccc([N+](=O)[O-])c3nonc23)nn1 [12a],0.254

# System: membrane-impaired mutant E. coli (LpxC and DC2)
# Test: microbe, parasite or virus in culture
# Details: Escherichia coli, read-out: MIC membrane-impaired mutant E. coli (LpxC and DC2)
row,Structure (SMILES),MIC [µg/mL]
1,"COc1cc(Cc2cnc(N)nc2N)cc(OC)c1OC [TMP, trimethoprim, reference compound]",0.25 to 0.5

# System: E. coli ATCC 25922
# Test: MIC determination, E. coli ATCC 25922 (wild type)
# Format: cell-based, Escherichia coli
# Details: Escherichia coli, ATCC25922, wild type; n = 4; read-out: MIC E. coli ATCC 25922
row,Structure (SMILES),MIC [µg/mL]
1,COc1cc(Cc2cnc(N)nc2N)cc(OC)c1OCCCCCn1cc(CNC(=O)Cc2cc(=O)oc3cc(N(C)C)ccc23)nn1 [compound 13c],> 64
2,COc1cc(Cc2cnc(N)nc2N)cc(OC)c1OCCCCN=[N+]=[N-] [8b],32
3,COc1cc(Cc2cnc(N)nc2N)cc(OC)c1OCCCn1cc(CNc2ccc([N+](=O)[O-])c3nonc23)nn1 [12a],> 64
4,"COc1cc(Cc2cnc(N)nc2N)cc(OC)c1OC [TMP, trimethoprim, reference compound]",0.5

# System: E. coli DC2 mutant
# Test: microbe, parasite or virus in culture
# Format: cell-based
# Details: Escherichia coli, DC2MUTANT, read-out: MIC E. coli DC2 mutant
row,Structure (SMILES),MIC [µg/mL]
1,COc1cc(Cc2cnc(N)nc2N)cc(OC)c1OCCCCCn1cc(CNC(=O)Cc2cc(=O)oc3cc(N(C)C)ccc23)nn1 [compound 13c],> 64
2,COc1cc(Cc2cnc(N)nc2N)cc(OC)c1OCCCCN=[N+]=[N-] [8b],8
3,COc1cc(Cc2cnc(N)nc2N)cc(OC)c1OCCCn1cc(CNc2ccc([N+](=O)[O-])c3nonc23)nn1 [12a],> 64
4,"COc1cc(Cc2cnc(N)nc2N)cc(OC)c1OC [TMP, trimethoprim, reference compound]",0.25

# System: E. coli MB4827
# Test: MIC determination, E. coli MB4827
# Format: cell-based
# Details: Escherichia coli, n = 4
row,Structure (SMILES),MIC [µg/mL]
1,COc1cc(Cc2cnc(N)nc2N)cc(OC)c1OCCCCCn1cc(CNC(=O)Cc2cc(=O)oc3cc(N(C)C)ccc23)nn1 [compound 13c],> 64
2,COc1cc(Cc2cnc(N)nc2N)cc(OC)c1OCCCCN=[N+]=[N-] [8b],16
3,COc1cc(Cc2cnc(N)nc2N)cc(OC)c1OCCCn1cc(CNc2ccc([N+](=O)[O-])c3nonc23)nn1 [12a],> 64
4,"COc1cc(Cc2cnc(N)nc2N)cc(OC)c1OC [TMP, trimethoprim, reference compound]",1

# System: S. aureus ATCC 25923
# Test: MIC determination, S. aureus ATCC 25923
# Format: cell-based
# Details: Staphylococcus aureus, ATCC25923, n = 4; read-out: MIC S. aureus ATCC 25923
row,Structure (SMILES),MIC [µg/mL]
1,COc1cc(Cc2cnc(N)nc2N)cc(OC)c1OCCCCCn1cc(CNC(=O)Cc2cc(=O)oc3cc(N(C)C)ccc23)nn1 [compound 13c],> 64
2,COc1cc(Cc2cnc(N)nc2N)cc(OC)c1OCCCCN=[N+]=[N-] [8b],4
3,COc1cc(Cc2cnc(N)nc2N)cc(OC)c1OCCCn1cc(CNc2ccc([N+](=O)[O-])c3nonc23)nn1 [12a],64
4,"COc1cc(Cc2cnc(N)nc2N)cc(OC)c1OC [TMP, trimethoprim, reference compound]",1

# System: E. coli lpxC/tolC mutant
# Test: microbe, parasite or virus in culture
# Format: cell-based
# Details: Escherichia coli, read-out: MIC E. coli lpxC/tolC mutant
row,Structure (SMILES),MIC [µg/mL]
1,COc1cc(Cc2cnc(N)nc2N)cc(OC)c1OCCCCCn1cc(CNC(=O)Cc2cc(=O)oc3cc(N(C)C)ccc23)nn1 [compound 13c],1
2,COc1cc(Cc2cnc(N)nc2N)cc(OC)c1OCCCCN=[N+]=[N-] [8b],0.25
3,COc1cc(Cc2cnc(N)nc2N)cc(OC)c1OCCCn1cc(CNc2ccc([N+](=O)[O-])c3nonc23)nn1 [12a],1
4,"COc1cc(Cc2cnc(N)nc2N)cc(OC)c1OC [TMP, trimethoprim, reference compound]",0.125

# System: not listed separately
# Test: Cytotoxicity assay (resazurin), HEK 293
# Format: cell-based
# Details: human, HEK293 cells, 20 h incubation, highest concentration 60 μM
row,Structure (SMILES),CC50 at 20 h [µM]
1,COc1cc(Cc2cnc(N)nc2N)cc(OC)c1OCCCCCn1cc(CNC(=O)Cc2cc(=O)oc3cc(N(C)C)ccc23)nn1 [compound 13c],> 60
2,COc1cc(Cc2cnc(N)nc2N)cc(OC)c1OCCCCN=[N+]=[N-] [8b],> 60
3,COc1cc(Cc2cnc(N)nc2N)cc(OC)c1OCCCn1cc(CNc2ccc([N+](=O)[O-])c3nonc23)nn1 [12a],> 60

# System: not listed separately
# Test: Cytotoxicity assay (resazurin), HepG2
# Format: cell-based
# Details: human, HepG2 cells, 20 h incubation, highest concentration 60 μM
row,Structure (SMILES),CC50 at 20 h [µM]
1,COc1cc(Cc2cnc(N)nc2N)cc(OC)c1OCCCCCn1cc(CNC(=O)Cc2cc(=O)oc3cc(N(C)C)ccc23)nn1 [compound 13c],> 60
2,COc1cc(Cc2cnc(N)nc2N)cc(OC)c1OCCCCN=[N+]=[N-] [8b],> 60
3,COc1cc(Cc2cnc(N)nc2N)cc(OC)c1OCCCn1cc(CNc2ccc([N+](=O)[O-])c3nonc23)nn1 [12a],> 60

# System: E. coli lpxC mutant
# Test: microbe, parasite or virus in culture
# Format: cell-based
# Details: Escherichia coli, read-out: MIC E. coli lpxC mutant
row,Structure (SMILES),MIC [µg/mL]
1,COc1cc(Cc2cnc(N)nc2N)cc(OC)c1OCCCCCn1cc(CNC(=O)Cc2cc(=O)oc3cc(N(C)C)ccc23)nn1 [compound 13c],> 64
2,COc1cc(Cc2cnc(N)nc2N)cc(OC)c1OCCCn1cc(CNc2ccc([N+](=O)[O-])c3nonc23)nn1 [12a],> 64

# System: E. coli clin isol
# Test: MIC determination, E. coli clinical isolate (first column)
# Format: cell-based
# Details: Escherichia coli, n = 4
row,Structure (SMILES),MIC [µg/mL]
1,COc1cc(Cc2cnc(N)nc2N)cc(OC)c1OCCCCCn1cc(CNC(=O)Cc2cc(=O)oc3cc(N(C)C)ccc23)nn1 [compound 13c],> 64
2,COc1cc(Cc2cnc(N)nc2N)cc(OC)c1OCCCCN=[N+]=[N-] [8b],8
3,COc1cc(Cc2cnc(N)nc2N)cc(OC)c1OCCCn1cc(CNc2ccc([N+](=O)[O-])c3nonc23)nn1 [12a],> 64
4,"COc1cc(Cc2cnc(N)nc2N)cc(OC)c1OC [TMP, trimethoprim, reference compound]",0.5

# System: E. coli clin isol
# Test: MIC determination, E. coli clinical isolate (second column)
# Format: cell-based
# Details: Escherichia coli, n = 4
row,Structure (SMILES),MIC [µg/mL]
1,COc1cc(Cc2cnc(N)nc2N)cc(OC)c1OCCCCCn1cc(CNC(=O)Cc2cc(=O)oc3cc(N(C)C)ccc23)nn1 [compound 13c],> 64
2,COc1cc(Cc2cnc(N)nc2N)cc(OC)c1OCCCCN=[N+]=[N-] [8b],16
3,COc1cc(Cc2cnc(N)nc2N)cc(OC)c1OCCCn1cc(CNc2ccc([N+](=O)[O-])c3nonc23)nn1 [12a],> 64
4,"COc1cc(Cc2cnc(N)nc2N)cc(OC)c1OC [TMP, trimethoprim, reference compound]",0.5
